{"source": "patent US8680282B2", "about": "“Cyclic inhibitors of carnitine palmitoyltransferase and treating cancer” (University Health Network, priority 2007, dated 2014)", "key": {"[1]": {"molecular_target": "T1, human CPT1A (Homo sapiens, UniProt P50416)", "T1 construct": "made in house; host or cells: Saccharomyces cerevisiae (pESC-trp) or cultured mammalian cells (pCDNA3.1); mitochondrial extract", "T1 sequence (P50416 1-773)": "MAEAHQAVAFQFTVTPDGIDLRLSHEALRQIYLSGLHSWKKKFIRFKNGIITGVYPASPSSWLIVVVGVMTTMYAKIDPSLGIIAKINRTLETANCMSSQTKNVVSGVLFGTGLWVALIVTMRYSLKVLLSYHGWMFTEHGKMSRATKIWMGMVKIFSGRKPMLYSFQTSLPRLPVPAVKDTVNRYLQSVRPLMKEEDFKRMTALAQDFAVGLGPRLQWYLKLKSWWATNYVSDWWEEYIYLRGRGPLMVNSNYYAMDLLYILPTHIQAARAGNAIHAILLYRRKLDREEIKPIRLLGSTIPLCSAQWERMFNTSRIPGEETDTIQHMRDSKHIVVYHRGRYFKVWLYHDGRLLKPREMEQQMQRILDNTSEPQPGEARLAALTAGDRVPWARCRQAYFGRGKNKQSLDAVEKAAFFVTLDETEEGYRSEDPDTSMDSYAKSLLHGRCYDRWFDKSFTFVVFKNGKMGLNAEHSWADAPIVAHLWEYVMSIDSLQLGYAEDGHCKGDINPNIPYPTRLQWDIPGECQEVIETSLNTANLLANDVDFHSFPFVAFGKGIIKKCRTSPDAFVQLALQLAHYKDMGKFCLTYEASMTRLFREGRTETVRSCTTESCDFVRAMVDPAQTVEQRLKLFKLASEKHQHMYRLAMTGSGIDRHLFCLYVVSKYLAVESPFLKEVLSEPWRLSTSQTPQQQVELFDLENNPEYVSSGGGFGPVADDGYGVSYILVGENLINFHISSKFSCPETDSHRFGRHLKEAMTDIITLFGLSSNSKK", "test": "Human CPT1A LC/MS assay", "assay_type": "biochemical", "conditions": "human CPT1A LC/MS assay, dose response format"}, "[2]": {"test_system": "A549", "test": "Cancer cell growth inhibition, SRB assay", "assay_type": "cell-based, human", "conditions": "Homo sapiens, 144 h; A549 (Lung); SRB at Day 6; triplicate"}, "[3]": {"test_system": "SW480", "test": "Cancer cell growth inhibition, SRB assay", "assay_type": "cell-based, human", "conditions": "Homo sapiens, 144 h; SW480 (Colon); SRB at Day 6; triplicate"}}, "data": [{"smiles": "CCCCCCCCc1ccc(N(C)S(=O)(=O)NC2(CC(=O)O)CCC[N+](C)(C)C2)cc1", "note": "(stereo not drawn) [Example S30, 3-(carboxymethyl)-1,1-dimethyl-3-(N-methyl-N-(4-octylphenyl)-sulfamoylamino)piperidinium 2,2,2-trifluoroacetate]", "values": [{"measurement": "IC50", "setting": "[1]", "result": "10 to 100", "unit": "µM"}, {"measurement": "GI50", "setting": "[2]", "result": 1000, "unit": "nM"}, {"measurement": "GI50", "setting": "[3]", "result": 3.5, "unit": "µM"}]}]}
